Assay results published in US20240335439A1, “USE OF AND METHOD FOR TELAPREVIR IN PREPARATION OF DRUG FOR TREATING AN ISCHEMIA/REPERFUSION INJURY AND CYTOPROTECTIVE DRUG” (THE THIRD XIANGYA HOSPITAL OF CENTRAL SOUTH UNIVERSITY, priority 2021, published 2024).

Legend:
[1] = tested on: Alzheimer's disease mouse models; test: Alzheimer's disease mouse model (Aβ1-42 into hippocampus), new/old object recognition experiment; assay type: in vivo, ICR mice; conditions: telaprevir 40 mg/kg intramuscular daily for 17 days; ##P<0.01 vs vehicle group, FIG. 7
Description: (§1) Experimental animals: 7-week-old healthy male ICR mice weighing 25-30 g. The experimental animals were raised for one week in an environment with a temperature of 25° C., a relative humidity of 60%, free drinking water, and timed and quantified feeding, and then administered according to the requirements of each experimental group.
Building of an Alzheimer's disease mouse model and drug treatment: Aβ1-42 was purchased from MCE Reagent Company, dissolved in DMSO, diluted with physiological saline to 2 μg/μL, and incubated in an incubator at 37° C. for 7 days to convert the Aβ1-42 into an aggregated state. […]
A learning and memory ability and cognitive function of mice were detected by a Morris water maze experiment and a new/old object recognition experiment.
According to the requirements of the new/old object recognition experiment, the experiment included three stages: an adaptation period, a training period, and a testing period. […] One of the two objects was replaced with another object with a different shape and color (denoted as C), and the time for the experimental mice to probe the two different objects within 10 minutes was recorded. […]

[2] = tested on: ischemic stroke rat models; test: Ischemic stroke rat model (MCAO 2 h, reperfusion 24 h); assay type: in vivo, SD rats; conditions: telaprevir 60 mg/kg after 2 hours of ischemia and 1 hour of reperfusion
Description: as §1, with “Healthy” for “7-week-old healthy”, “SD rats” for “ICR mice”, “250-300” for “25-30”
Method for building an ischemic stroke rat model: A cerebral ischemia/reperfusion rat model was prepared by a middle cerebral artery occlusion (MCAO) method. […]
Rat brain TTC staining and infarct volume measurement: After the rat was anesthetized, the brain was quickly taken out, the olfactory bulb and posterior brain were removed, and five coronal brain slices having a thickness of about 2.0 mm were cut from the antiunion, immediately placed in a 1% TTC solution, incubated at 37° C. in dark for 30 minutes, and then soaked and immobilized in a 10% paraformaldehyde solution. […] The infarct area of each brain slice was measured by ImageJ, and an infarct volume of the whole brain was calculated according to a formula: infarct volume=[(sum of front infarct areas of all slices+sum of back infarct areas of all slices)/2]×the thickness of each slice, that is, a sum of infarct volumes of all brain slices. […]
Neurological function scores of rats were detected and cerebral infarct volumes were measured.

## CCC[C@H](NC(=O)[C@@H]1[C@H]2CCC[C@H]2CN1C(=O)[C@@H](NC(=O)[C@@H](NC(=O)c1cnccn1)C1CCCCC1)C(C)(C)C)C(=O)C(=O)NC1CC1 [telaprevir]
[1]
  cognitive index, new/old object recognition: significantly increased
[2]; ##P<0.01 vs I/R, FIG. 2B
  neurological impairment symptoms (Longa neurological function score) of rats: significantly improve
[2]; vs I/R, FIG. 2A
  cerebral infarct volume of rats (TTC staining): significantly decreased
